The NIST ThermoML archive (doi:10.1016/j.jct.2010.04.018)
± gives the expanded uncertainty stated by the source.

Experiment: cn = amount concentration of the nth substance listed, in mol/dm3
Conditions: 101 kPa, Liquid; for speed of sound: Sing-around technique in a fixed-path interferometer; for mass density: Vibrating tube method

Oc1ccccc1O [1,2-benzenediol] + O
Conditions	mass density, 283.15 K [kg/m3]	mass density, 293.15 K [kg/m3]	mass density, 298.15 K [kg/m3]	mass density, 303.15 K [kg/m3]	mass density, 313.15 K [kg/m3]	speed of sound, 283.15 K [m/s]	speed of sound, 293.15 K [m/s]	speed of sound, 298.15 K [m/s]	speed of sound, 303.15 K [m/s]	speed of sound, 313.15 K [m/s]
c1 = 0.0354	1000.62 ± 0.041	999.093 ± 0.041	997.92 ± 0.041	996.509 ± 0.042	993.058 ± 0.042	1449.9 ± 1.2	1484.1 ± 1.2	1498.2 ± 1.2	1510.5 ± 1.2	1529.9 ± 1.2
c1 = 0.1697	1003.9 ± 0.043	1002.24 ± 0.042	1001.01 ± 0.041	999.543 ± 0.041	995.992 ± 0.041	1457.9 ± 1.2	1490.6 ± 1.2	1504 ± 1.2	1515.7 ± 1.2	1534.1 ± 1.2
c1 = 0.346	1008.13 ± 0.045	1006.3 ± 0.043	1004.99 ± 0.043	1003.46 ± 0.042	999.774 ± 0.041	1467.9 ± 1.2	1498.7 ± 1.2	1511.4 ± 1.2	1522.2 ± 1.2	1539.2 ± 1.2
c1 = 0.4721	1011.09 ± 0.046	1009.14 ± 0.048	1007.78 ± 0.046	1006.19 ± 0.046	1002.41 ± 0.042	1474.5 ± 1.2	1504.1 ± 1.2	1516.2 ± 1.2	1526.6 ± 1.2	1542.6 ± 1.2
c1 = 0.5008	1011.78 ± 0.047	1009.79 ± 0.043	1008.42 ± 0.043	1006.82 ± 0.042	1003.02 ± 0.042	1476.5 ± 1.2	1505.4 ± 1.2	1517.3 ± 1.2	1527.5 ± 1.2	1543.4 ± 1.2
c1 = 0.6589	1015.4 ± 0.048	1013.26 ± 0.047	1011.82 ± 0.046	1010.15 ± 0.045	1006.23 ± 0.044	1484 ± 1.2	1511.8 ± 1.2	1523 ± 1.2	1532.7 ± 1.2	1547.3 ± 1.2
c1 = 0.7524	1017.53 ± 0.049	1015.29 ± 0.047	1013.81 ± 0.047	1012.11 ± 0.046	1008.12 ± 0.045	1488.5 ± 1.2	1515.4 ± 1.2	1526.3 ± 1.2	1535.5 ± 1.2	1549.5 ± 1.2

Oc1cccc(O)c1 [1,3-benzenediol] + O
Conditions	mass density, 283.15 K [kg/m3]	mass density, 293.15 K [kg/m3]	mass density, 298.15 K [kg/m3]	mass density, 303.15 K [kg/m3]	mass density, 313.15 K [kg/m3]	speed of sound, 283.15 K [m/s]	speed of sound, 293.15 K [m/s]	speed of sound, 298.15 K [m/s]	speed of sound, 303.15 K [m/s]	speed of sound, 313.15 K [m/s]
c1 = 0.0479	1000.93 ± 0.04	999.387 ± 0.041	998.206 ± 0.041	996.776 ± 0.041	993.338 ± 0.041	1449.5 ± 1.2	1483.7 ± 1.2	1497.8 ± 1.2	1510 ± 1.2	1529.5 ± 1.2
c1 = 0.101	1002.08 ± 0.041	1000.51 ± 0.04	999.325 ± 0.04	997.875 ± 0.04	994.393 ± 0.041	1451.5 ± 1.2	1485.2 ± 1.2	1499.1 ± 1.2	1511.2 ± 1.2	1530.3 ± 1.2
c1 = 0.1786	1003.79 ± 0.042	1002.17 ± 0.041	1000.95 ± 0.04	999.476 ± 0.04	995.941 ± 0.041	1454.3 ± 1.2	1487.3 ± 1.2	1500.9 ± 1.2	1512.8 ± 1.2	1531.4 ± 1.2
c1 = 0.3402	1007.38 ± 0.043	1005.58 ± 0.042	1004.28 ± 0.042	1002.77 ± 0.041	999.12 ± 0.04	1459.9 ± 1.2	1491.6 ± 1.2	1504.7 ± 1.2	1515.9 ± 1.2	1533.7 ± 1.2
c1 = 0.4522	1009.8 ± 0.044	1007.9 ± 0.043	1006.56 ± 0.043	1005 ± 0.042	1001.29 ± 0.041	1463.5 ± 1.2	1494.5 ± 1.2	1507.1 ± 1.2	1518 ± 1.2	1535.2 ± 1.2
c1 = 0.5654	1012.22 ± 0.046	1010.22 ± 0.045	1008.84 ± 0.044	1007.25 ± 0.043	1003.46 ± 0.042	1467.2 ± 1.2	1497.3 ± 1.2	1509.6 ± 1.2	1520.1 ± 1.2	1536.6 ± 1.2
c1 = 0.7623	1016.36 ± 0.048	1014.19 ± 0.047	1012.74 ± 0.046	1011.08 ± 0.045	1007.17 ± 0.044	1473.5 ± 1.2	1502 ± 1.2	1513.7 ± 1.2	1523.7 ± 1.2	1539 ± 1.2
